# “Also recorded” adds a separate entry of the source.
# Columns and labels:
# [1] = test system: set of four target proteins (calcineurin-calmodulin) adsorbed on GFK-FK506; assay: Competitive binding / elution of target proteins from glutathione-Sepharose-immobilized GFK-FK506; set-up: species or system bovine
# Description: A competitive binding experiment was carried out with recombinant FKBP12 and cyclophilin A (Standaert et al., 1990, supra, Lui et al., 1990, Proc. Natl. Acad. Sci. 87:2304) and their respective drug complexes. After the set of four target proteins were adsorbed onto the glutathione Sepharose affinity matrix, elution was attempted with immunophilins, the drugs, or the immunophilin-drug complexes. The set of four proteins were eluted from glutathione-sepharoseimmobilized GFK-FK506 with both recombinant complexes. In contrast, these proteins were not eluted by free immunophilins or unbound drugs.
# To further test the importance of divalent metal ions for interaction between immunophilin-drug complexes and target proteins, the adsorption experiment was performed in the presence of the Ca^2+ chelator EGTA.
# [2] = test system: proteins of Mr 61,000, 57,000, 17,000, and 15,000 from calf thymus (calcineurin A, calcineurin B, calmodulin); assay: Glutathione Sepharose adsorption of target proteins from tissue extracts by immunophilin-drug affinity matrices; format: binding, bovine; conditions: calf thymus extract; Ca2+ and Mg2+ in incubation buffer
# Description: Several factors were taken into account in the design of the first glutathione-Sepharose adsorption experiment. […] In addition, in some experiments, a homobifunctional cross-linking reagent, dimethyl 3,3'-dithiobispropionimidate (DTBP) (Wang et al. 1974, J. Biol. Chem. 249:8005) was added to the incubation mixture to retain target proteins whose affinity for immunophilin or immunophilin-drug complex was not sufficient to withstand the washes following adsorption of the complex to the solid phase.
# Adsorption of calcineurin-calmodulin with GFK-FK506 using glutathione Sepharose was performed as follows. Crude tissue extracts, fresh bovine calf brain, thymus, or spleen (Research 87, Revere, MA), were homogenized (1:3 W/V) in 20 mM Tris HCl (pH 6.8), 0.25 mM NaCl, 2 mM β-mercaptoethanal, 0.02% NaN3, 1 mM PMSF, and 5% glycerol. The homogenate was centrifuged at 8,000×g for 4 h. The supernatant was separated and the pellet was resuspended in an equal volume of the same buffer. Centrifugation at 8,000 ×g for 4 h gave a second supernatant. The two supernatants were mixed (1:1 v/v) and centrifuged at 30,000×g for 45 min. The supernatant was then filtered through a 0.45 μm filter and kept at 4° C. before use.
# The crude tissue extracts were pre-incubated with glutathione Sepharose (about 1:100 to 1:200 dilution of the sepharose) at 4° C. for 1-3 h to remove the endogenous glutathione binding proteins, including glutathione S-transferases. […] After incubation at 4° C. on a nutator for 1.5 h, 25 μL of 50% (V/V) glutathione Sepharose in buffer A was added and incubation was continued for an additional 0.5 to 2 h. The Sepharose beads were precipitated by centrifugation on a microcentrifuge at 5,000×g for 2 min. The glutathione Sepharose beads were washed three times with 0.5 mL buffer A containing 0.2% Triton X-100. The washed glutathione Sepharose was then resuspended in 25 μL of 2× SDS sample buffer, heated in boiling water for 3 min, and centrifuged for 2 min. The supernatant was subjected to SDS-PAGE followed by silver staining. […]
# [3] = test system: T-cell receptor-mediated signaling pathway; conditions: cited from earlier work
# [4] = molecular target: T1, calcineurin-Ca2+/calmodulin (Bos taurus, UniProt P48452+P63099); assay: Calcineurin phosphatase assay with para-nitrophenyl phosphate; format: biochemical, bovine; conditions: Ca2+ and calmodulin present
# T1 construct: Bovine brain calcineurin and calmodulin were purchased from Sigma Chemical; purchased Sigma Chemical (St. Louis, Mo.); also a gift from Dr. Claude B. Klee; host or cells: bovine brain
# Text: The small para-nitrophenyl phosphate reagent presumably interacts with calcineurin nearly exclusively via active site residues, whereas the phosphopeptide, which is comprised of a sequence derived from the phosphorylation site on the RII subunit of cyclic AMP-dependent protein kinase (a calcineurin substrate) (Blumenthal et al., 1986, J. Biol. Chem 261:8140), is presumed to make extensive contact with the enzyme.
# calcineurin = molecular target: T2, calcineurin (Bos taurus, UniProt P48452+P63099); assay: Calcineurin phosphatase assay with 32P-phosphopeptide (RII subunit) substrate; format: biochemical, bovine; conditions: in the presence or absence of calmodulin; Ca2+
# T2 construct: Bovine brain calcineurin and calmodulin were purchased from Sigma Chemical; purchased Sigma Chemical (St. Louis, Mo.); also a gift from Dr. Claude B. Klee; host or cells: bovine brain
# T2 sequence (P63099 2-170 limits assumed, other chains not shown): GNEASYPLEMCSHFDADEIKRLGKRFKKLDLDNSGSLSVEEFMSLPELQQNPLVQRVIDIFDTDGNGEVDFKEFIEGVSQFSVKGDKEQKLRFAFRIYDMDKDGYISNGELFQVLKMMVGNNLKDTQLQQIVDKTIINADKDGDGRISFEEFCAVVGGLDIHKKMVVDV
# Description: Calcineurin is known to be a Ca^2+, calmodulin-dependent protein phosphatase (Stewart et al., 1982, FEBS. Lett. 137:80). Using a phosphorylated peptide fragment from the regulatory subunit of cAMP-dependent kinase as a substrate, the phosphatase activity of the calcineurin was assayed in the presence of the immunophilins, the individual drugs, and their respective complexes with or without calmodulin.
# Calcineurin phosphatase assays were carried out essentially as described previously (Manalan et al. 1983, Proc. Natl. Acad. Sci. USA 80:4291) with minor modifications. The substrate used was a synthetic peptide corresponding to the phosphorylation site of the RII subunit of cyclic AMP-dependent protein kinase […] (Sequence I.D. No. 1), which was phosphorylated with ^32 p-labeled ATP at the serine residue. The assay buffer consists of 40 mM TrisHCl (pH 7.5), 0.1 M NaCl, 6 mM MgCl2, 0.1 mM CaCl2, 0.1 mg/mL bovine serum albumin, and 0.5 mM dithiothreitol. The assay mixture (60 μl) contained 40 nM calcineurin, and 80 nM calmodulin (when present), and 2 μM phosphopeptide in addition to the assay buffer. […] Therefore, the drug solutions were prepared in DMSO as follows. DMSO stock solutions of the drugs were prepared (3000×final concentration) and then diluted 100×with the assay buffer. 2 μL was added to the incubation mixture giving a final concentration of DMSO of less than 0.04% in the final assay mixture. The incubations were carried out at 30° C. for 10 min before the reaction was stopped by addition of the stop solution (5% trichloroacetic acid, 0.1 M potassium phosphate) and loaded onto 0.5 ml Dowex AG 50W-X8 (200-800 mesh, Bio-Rad) columns. After the [^32 P]-inorganic phosphate was eluted from the column, it was mixed with 12 ml of ScintiVerse II (Fisher Scientific) and counted on a Beckman LS1801 Liquid Scintillation Systems. Bovine brain calcineurin and calmodulin were purchased from Sigma Chemical (St. Louis, Mo.). ^32 P-labeled phosphorylated peptide substrate, bovine brain calcineurin, and rabbit anti-calcineurin IgG were generous gifts from Dr. Claude B. Klee (National Cancer Institute, Department of Biochemistry). Goat-anti-rabbit IgG conjugated with alkaline phosphatase and the alkaline phosphatase substrates (BCIP and NBT) were obtained from Pierce (Rockford, ILL.). Glutathione Sepharose 4B was from Pharmacia LKB (Uppsala, Sweden). 506BD was prepared by Thomas J. Wandless and Patricia K. Somers in the Harvard laboratory.
Compound,elution of the four target proteins from the immobilized immunophilin-drug matrix [1],"retention/adsorption of the Mr 61,000, 57,000, 17,000 and 15,000 proteins by the affinity matrix [2]","concentration needed to interfere with T-cell receptor-mediated signaling, relative to CsA ([3]; lower concentrations than CsA)",effect on phosphatase activity of calcineurin towards para-nitrophenyl phosphate [4],effect on phosphatase activity of calcineurin towards the phosphopeptide substrate (calcineurin),inhibition of TCR-mediated signaling ([3]; previous observations)
O=C(O)CN(CCOCCOCCN(CC(=O)O)CC(=O)O)CC(=O)O [EGTA],able to effectively elute; also recorded: capable of eluting,–,–,–,–,–
C=CC[C@@H]1/C=C(\C)C[C@H](C)C[C@H](OC)[C@H]2O[C@@](O)(C(=O)C(=O)N3CCCC[C@H]3C(=O)O[C@H](/C(C)=C/[C@@H]3CC[C@@H](O)[C@H](OC)C3)[C@H](C)[C@@H](O)CC1=O)[C@H](C)C[C@@H]2OC [FK506],–,do not retain,100 fold,no effect,no effect,–
CO[C@H]1C[C@@H]2CC[C@@H](C)[C@@](O)(O2)C(=O)C(=O)N2CCCC[C@H]2C(=O)O[C@H]([C@H](C)C[C@@H]2CC[C@@H](O)[C@H](OC)C2)CC(=O)[C@H](C)/C=C(\C)[C@@H](O)[C@@H](OC)C(=O)[C@H](C)C[C@H](C)/C=C/C=C/C=C/1C [rapamycin],–,do not retain,–,no effect,no effect,"inhibits different, calcium-independent signaling pathways"
FKBP12: recombinant human immunophilin binding FK506 and rapamycin,–,do not retain,–,no effect,no effect,–
cyclophilin A: recombinant human immunophilin which complexes with cyclosporine A,–,–,–,no effect,no effect,–
